Laboratory results taken from the NIST ThermoML archive (doi:10.1016/j.jct.2009.04.001).

Experiments:
[1] = for surface tension liquid-gas: Pendant drop shape; for mass density: Liquid, Vibrating tube method
[2] = xn = mol fraction of the nth substance listed; details: for surface tension liquid-gas: Pendant drop shape; for mass density: 101 kPa, Liquid, Vibrating tube method

COCCOC [1,2-dimethoxyethane]
[1]
Details	surface tension liquid-gas [mN/m]
298.15 K	24.27
303.15 K	23.73
308.15 K	23.16

mass density [kg/m3], [1]
Details	298.15 K	303.15 K	308.15 K
101 kPa	–	856.8	–
101.33 kPa	861.36	856.79	851.24

COCCOC [1,2-dimethoxyethane] + Cc1ccc(C)cc1
[2]
Details	mass density [kg/m3]	surface tension liquid-gas [mN/m]
298.15 K, x1 = 0.1002	857.45	27.63
298.15 K, x1 = 0.2004	857.95	27.17
298.15 K, x1 = 0.2996	858.44	26.75
298.15 K, x1 = 0.4001	858.93	26.32
298.15 K, x1 = 0.5009	859.41	25.91
298.15 K, x1 = 0.5997	859.85	25.54
298.15 K, x1 = 0.7018	860.28	25.18
298.15 K, x1 = 0.8005	860.66	24.87
298.15 K, x1 = 0.8998	861.02	24.57
298.15 K, x1 = 1	861.36	24.27
303.15 K, x1 = 0.0999	853.1	27.12
303.15 K, x1 = 0.2007	853.58	26.67
303.15 K, x1 = 0.3002	854.06	26.24
303.15 K, x1 = 0.3999	854.52	25.82
303.15 K, x1 = 0.4999	854.97	25.41
303.15 K, x1 = 0.6001	855.4	25.03
303.15 K, x1 = 0.7011	855.81	24.68
303.15 K, x1 = 0.8003	856.19	24.37
303.15 K, x1 = 0.9003	856.52	24.05
303.15 K, x1 = 1	856.79	23.73
308.15 K, x1 = 0.0996	848.66	26.61
308.15 K, x1 = 0.1998	849.05	26.16
308.15 K, x1 = 0.2997	849.41	25.73
308.15 K, x1 = 0.4001	849.76	25.3
308.15 K, x1 = 0.4995	850.09	24.89
308.15 K, x1 = 0.6004	850.4	24.51
308.15 K, x1 = 0.6993	850.67	24.17
308.15 K, x1 = 0.7993	850.93	23.84
308.15 K, x1 = 0.8998	851.14	23.5
308.15 K, x1 = 1	851.24	23.16

COCCOC [1,2-dimethoxyethane] + Cc1ccccc1C
[2]
Details	mass density [kg/m3]	surface tension liquid-gas [mN/m]
298.15 K, x1 = 0.0995	874.01	29.05
298.15 K, x1 = 0.1998	872.89	28.28
298.15 K, x1 = 0.3003	871.73	27.6
298.15 K, x1 = 0.4004	870.51	27.08
298.15 K, x1 = 0.4998	869.24	26.63
298.15 K, x1 = 0.6001	867.86	26.2
298.15 K, x1 = 0.7008	866.37	25.78
298.15 K, x1 = 0.7996	864.86	25.37
298.15 K, x1 = 0.8992	863.22	24.96
298.15 K, x1 = 0.95	862.34	24.64
298.15 K, x1 = 1	861.36	24.27
303.15 K, x1 = 0.0996	869.77	28.45
303.15 K, x1 = 0.1997	868.64	27.73
303.15 K, x1 = 0.3007	867.45	27.08
303.15 K, x1 = 0.3997	866.2	26.61
303.15 K, x1 = 0.5001	864.88	26.19
303.15 K, x1 = 0.6012	863.46	25.78
303.15 K, x1 = 0.7009	861.98	25.37
303.15 K, x1 = 0.7988	860.43	25
303.15 K, x1 = 0.8998	858.74	24.53
303.15 K, x1 = 0.9498	857.85	24.17
303.15 K, x1 = 1	856.8	23.73
308.15 K, x1 = 0.0998	865.45	27.92
308.15 K, x1 = 0.2005	864.2	27.23
308.15 K, x1 = 0.3003	862.9	26.61
308.15 K, x1 = 0.4009	861.51	26.17
308.15 K, x1 = 0.4991	860.07	25.77
308.15 K, x1 = 0.5995	858.53	25.39
308.15 K, x1 = 0.7013	856.88	24.99
308.15 K, x1 = 0.7991	855.2	24.58
308.15 K, x1 = 0.9008	853.35	24.07
308.15 K, x1 = 0.9503	852.39	23.66
308.15 K, x1 = 1	851.24	23.16

Cc1ccccc1C [1,2-dimethylbenzene]
[1]
Details	surface tension liquid-gas [mN/m]
298.15 K	29.86
303.15 K	29.18
308.15 K	28.61

[1], 101.33 kPa
Details	mass density [kg/m3]
298.15 K	875.09
303.15 K	870.86
308.15 K	866.64

Cc1ccccc1C [1,2-dimethylbenzene] + COCCOC
[2], x2 = 0
Details	mass density [kg/m3]	surface tension liquid-gas [mN/m]
298.15 K	875.09	29.86
303.15 K	870.86	29.18
308.15 K	866.64	28.61

Cc1ccc(C)cc1 [1,4-dimethylbenzene]
[1]
Details	surface tension liquid-gas [mN/m]
298.15 K	28.11
303.15 K	27.59
308.15 K	27.07

[1], 101.33 kPa
Details	mass density [kg/m3]
298.15 K	856.95
303.15 K	852.61
308.15 K	848.27

Cc1ccc(C)cc1 [1,4-dimethylbenzene] + COCCOC
[2], x2 = 0
Details	mass density [kg/m3]	surface tension liquid-gas [mN/m]
298.15 K	856.95	28.11
303.15 K	852.61	27.59
308.15 K	848.27	27.07
